The text below walks through data of US9278915B2, “Agonists of GPR40” (CONNEXIOS LIFE SCIENCES PVT LTD, priority 2010, dated 2016).

The term EC50 denotes the concentration that produces a half-maximal response.

T1 sequence (O14842 whole entry): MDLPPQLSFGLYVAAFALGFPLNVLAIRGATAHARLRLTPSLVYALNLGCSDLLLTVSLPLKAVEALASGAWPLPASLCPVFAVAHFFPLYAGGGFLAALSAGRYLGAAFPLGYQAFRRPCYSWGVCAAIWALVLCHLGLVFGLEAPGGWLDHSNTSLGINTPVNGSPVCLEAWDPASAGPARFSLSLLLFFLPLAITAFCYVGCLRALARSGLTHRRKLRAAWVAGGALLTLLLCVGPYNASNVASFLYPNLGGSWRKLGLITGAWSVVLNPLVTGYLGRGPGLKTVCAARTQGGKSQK

The assay addresses T1, hGPR40 (Homo sapiens, UniProt O14842).
T1 construct: expressed in transfected cells
The experiment in a line: Calcium flux assay to detect GPR40 activation. It counts as cell-based. As to conditions: CHO-K cells stably expressing hGPR40; Fluo-4 NW; read for 4 min at 5 s intervals. How it is done:
Biological Activity Calium Flux Assay to Detect GPR40 Activation: CHO-K cells stably expressing hGPR40 were selected in a media containing Neomycin/G418. The cells were plated at a concentration of 20,000 cells per well in black 96-well clear bottom tissue culture treated plates. The cells were cultured for 24 h at 37° C. in a humidified 5% CO2 air environment to allow for protein expression. The next day, after removal of media from wells, Fluo-4 NW (Invitrogen) is added at 100 ul/well and the cells were incubated for 30 min at 37° C. and for a further 30 min at RT. All test compounds were diluted to appropriate concentrations in HEPES buffer. Compounds were added to the cells and the wells were read in the BioTEK synergy reader and readings were taken for 4 min with an interval of 5 s.
In the case of `CO/N=C(\COc1ccc(COc2ccc(CCC(=O)O)c(F)c2)cc1)c1ccccc1` [Compound 36, 3-{2-Fluoro-4-[(4-{[(2Z)-2-(methoxyimino)-2-phenylethyl]oxy}benzyl)oxy]phenyl}propanoic acid], the EC50 was less than 10 nM.
The value for `CO/N=C(\COc1ccc(COc2ccc(C(C#N)CC(=O)O)cc2)cc1)c1ccccc1` (single isomer, unassigned; (+)) [Compound 74, (+)-3-Cyano-3-{4-[(4-{[(2Z)-2-(methoxyimino)-2-phenylethyl]oxy}benzyl)oxy]phenyl}propanoic acid] was greater than 100 nM; that for `CO/N=C(\COc1ccc(COc2ccc(C(CC(=O)O)c3ccon3)cc2)cc1)c1ccccc1` (centres unmarked) [Compound 29, Sodium 3-{4-[(4-{[(2Z)-2-(methoxyimino)-2-phenylethyl]oxy}benzyl)oxy]phenyl}-3-(1,2-oxazol-3-yl)propanoate] was less than 10 nM; that for `CO/N=C(\COc1ccc(COc2ccc(CCC(=O)O)cc2)cc1)c1sc2c(c1C)C(C)(C)CCC2(C)C` [Compound 106, 3-{4-[(4-{[(2E)-2-(Methoxyimino)-2-(3,4,4,7,7-pentamethyl-4,5,6,7-tetrahydro-1-benzothiophen-2-yl)ethyl]oxy}benzyl)oxy]phenyl}propanoic acid] was greater than 100 nM.
The value for `CO/N=C(\COc1ccc(CNc2ccc(-c3onc(C)c3CCC(=O)O)cc2)cc1)c1ccc(C#N)cc1` [Compound 72, 3-(5-{4-[(4-{[(2E,2Z)-2-(4-Cyanophenyl)-2-(methoxyimino)ethyl]oxy}benzyl)amino]phenyl}-3-methyl-1,2-oxazol-4-yl)propanoic acid] was greater than 100 nM; that for `CO/N=C(\COc1ccc(COc2ccc(OCC(=O)O)cc2)cc1)c1ccccc1` [Compound 117, {4-[(4-{[(2Z)-2-(Methoxyimino)-2-phenylethyl]oxy}benzyl)oxy]phenoxy}acetic acid] was greater than 100 nM.
Turning to `CO/N=C(\COc1ccc(COc2ccc(CCC(=O)O)c(OC(C)C)c2)cc1)c1ccccc1` [Compound 60, 3-{4-[(4-{[(2Z)-2-(Methoxyimino)-2-phenylethyl]oxy}benzyl)oxy]-2-(propan-2-yloxy)phenyl}propanoic acid], the EC50 is greater than 100 nM.
The value for `N#CC(CC(=O)O)c1ccc(OCc2ccc(OC/C(=N\O)c3ccccc3)cc2)cc1` (centres unmarked) [Compound 109, 3-Cyano-3-{4-[(4-{[(2Z)-2-(hydroxyimino)-2-phenylethyl]oxy}benzyl)oxy]phenyl}propanoic acid] was greater than 100 nM.
The value for `CCCC(CC(=O)O)c1ccc(OCc2ccc(OC/C(=N\OC)c3ccccc3)cc2)cc1` (centres unmarked) [Compound 91, 3-{4-[(4-{[(2Z)-2-(Methoxyimino)-2-phenylethyl]oxy}benzyl)oxy]phenyl}hexanoic acid] was greater than 100 nM.
Turning to `CO/N=C(/COc1ccc(COc2ccc(C(C#N)CC(=O)O)cc2)cc1)c1ccc(C#N)cc1` (racemic) [Compound 33, 3-Cyano-3-{4-[(4-{[(2E,2Z)-2-(4-cyanophenyl)-2-(methoxyimino)ethyl]oxy}benzyl)oxy]phenyl}propanoic acid], the half-maximal effective concentration (EC50) was less than 10 nM.
The value for `CO/N=C(\COc1ccc(COc2ccc(CCC(=O)O)cn2)cc1)c1ccccc1` [Compound 114, 3-{6-[(4-{[(2Z)-2-(Methoxyimino)-2-phenylethyl]oxy}benzyl)oxy]pyridin-3-yl}propanoic acid] was greater than 100 nM; that for `CN(C)CCO/N=C(/c1ccccc1)c1cccc(COc2ccc(CCC(=O)O)cc2)c1` [Compound 11, 3-[4-({3-[(E,Z)-{[2-(Dimethylamino)ethoxy]imino}(phenyl)methyl]benzyl}oxy)phenyl]propanoic acid] was greater than 100 nM; that for `CO/N=C(\COc1ccc(COc2ccc(C(C#N)CC(=O)O)cc2)cc1)c1cccc(F)c1` (centres unmarked) [Compound 55, Sodium 3-cyano-3-{4-[(4-{[(2Z)-2-(3-fluorophenyl)-2-(methoxyimino)ethyl]oxy}benzyl)oxy]phenyl}propanoate] was less than 10 nM.
Take `CO/N=C(\COc1ccc(COc2ccc(CCC(=O)O)c(F)c2)cc1)c1ccccc1` [Compound 71, Sodium 3-{2-fluoro-4-[(4-{[(2Z)-2-(methoxyimino)-2-phenylethyl]oxy}benzyl)oxy]phenyl}propanoate]: the EC50 was greater than 100 nM.
In the case of `CO/N=C(/COc1ccc(COc2ccc(C(C#N)CC(=O)O)cc2)cc1)C1CC1` (centres unmarked) [Compound 104, 3-Cyano-3-{4-[(4-{[(2E)-2-cyclopropyl-2-(methoxyimino)ethyl]oxy}benzyl)oxy]phenyl}propanoic acid], the EC50 is greater than 100 nM.
The value for `CO/N=C(\COc1ccc(COc2ccc(CCC(=O)O)cc2OC)cc1)c1ccccc1` [Compound 94, 3-{3-Methoxy-4-[(4-{[(2Z)-2-(methoxyimino)-2-phenylethyl]oxy}benzyl)oxy]phenyl}propanoic acid] was greater than 100 nM; that for `CO/N=C(\COc1ccc(COc2ccc(C(C#N)CC(=O)O)cc2)cc1OC)c1ccccc1` (centres unmarked) [Compound 26, 3-Cyano-3-{4-[(3-methoxy-4-{[(2Z)-2-(methoxyimino)-2-phenylethyl]oxy}benzyl)oxy]phenyl}propanoic acid] was 10 to 100 nM; that for `CO/N=C(\COc1ccc(COc2ccc(C(C#N)CC(=O)O)cc2)cc1F)c1ccccc1` (centres unmarked) [Compound 50, Sodium 3-cyano-3-{4-[(3-fluoro-4-{[(2Z)-2-(methoxyimino)-2-phenylethyl]oxy}benzyl)oxy]phenyl}propanoate] was less than 10 nM.
For `C=CCO/N=C(/CC(=O)O)c1ccc(OCc2ccc(OCC(=NOC)c3ccccc3)cc2)cc1` (mixture of isomers) [Compound 121, (3Z)-3-{4-[(4-{[(2E,2Z)-2-(Methoxyimino)-2-phenylethyl]oxy}benzyl)oxy]phenyl}-3-[(prop-2-en-1-yloxy)imino]propanoic acid], the EC50 was greater than 100 nM.
On to `CON=C(COCC1CCC(COc2ccc(CCC(=O)O)cc2)CC1)c1ccccc1` (centres unmarked) [Compound 113, 3-(4-{[4-({[(2E,2Z)-2-(Methoxyimino)-2-phenylethyl]oxy}methyl)cyclohexyl]methoxy}phenyl)propanoicacid], for which the EC50 was greater than 100 nM.
The value for `CC(C)O/N=C(/c1ccccc1)c1cccc(CNc2ccc(CCC(=O)O)cc2)c1` [Compound 10, 3-{4-[(3-{(E,Z)-Phenyl[(propan-2-yloxy)imino]methyl}benzyl)amino]phenyl}propanoic acid] was greater than 100 nM.
The value for `CO/N=C(\COc1ccc(COc2ccc(C(C#N)CC(=O)O)cc2)cc1)c1ccccc1` (single isomer, unassigned; (+)) [Compound 81, (+)-Sodium 3-cyano-3-{4-[(4-{[(2Z)-2-(methoxyimino)-2-phenylethyl]oxy}benzyl)oxy]phenyl}propanoate] was 10 to 100 nM; that for `CO/N=C(\COc1ccc(COc2ccc(C(C#N)CC(=O)O)cc2)cc1)c1ccccc1` (centres unmarked) [Compound 18, Sodium 3-cyano-3-{4-[(4-{[(2Z)-2-(methoxyimino)-2-phenylethyl]oxy}benzyl)oxy]phenyl}propanoate] was less than 10 nM.
The value for `N#CC(CC(=O)O)c1ccc(OCc2ccc(OC/C(=N\OC3CCCCC3)c3ccccc3)cc2)cc1` (centres unmarked) [Compound 111, 3-Cyano-3-(4-{[4-({(2Z)-2-[(cyclohexyloxy)imino]-2-phenylethyl}oxy)benzyl]oxy}phenyl)propanoic acid] was 10 to 100 nM; that for `CO/N=C(\COc1ccc(COc2ccc(CCC(=O)O)cc2)cn1)c1ccccc1` [Compound 20, 3-{4-[(6-{[(2Z)-2-(Methoxyimino)-2-phenylethyl]oxy}pyridin-3-yl)methoxy]phenyl}propanoic acid] was greater than 100 nM.
On to `CO/N=C(\c1ccccc1)c1cccc(COc2ccc(CC(=O)O)cc2)c1` [Compound 19, [4-({3-[(E,Z)-(Methoxyimino)(phenyl)methyl]benzyl}oxy)phenyl]acetic acid], for which the EC50 is greater than 100 nM.
The value for `CON=C(COc1ccc(CNc2ccc([C@@H]3C[C@H]3C(=O)O)cc2)cc1)c1ccccc1` (mixture of isomers) [Compound 14, (1R,2R)-2-{4-[(4-{[(2E,2Z)-2-(Methoxyimino)-2-phenylethyl]oxy}benzyl)amino]phenyl}cyclopropanecarboxylic acid] was 10 to 100 nM.
The value for `CO/N=C(\COc1ccc(COc2ccc(C(C#N)CC(=O)O)cc2)cc1)C1=Cc2ccccc2C1` (centres unmarked) [Compound 101, 3-Cyano-3-{4-[(4-{[(2Z)-2-(1H-inden-2-yl)-2-(methoxyimino)ethyl]oxy}benzyl)oxy]phenyl}propanoic acid] was 10 to 100 nM; that for `CO/N=C(\COc1cccc(COc2ccc(CC(C#N)C(=O)O)cc2)c1)c1ccccc1` (centres unmarked) [Compound 8, 2-Cyano-3-{4-[(3-{[(2E,2Z)-2-(methoxyimino)-2-phenylethyl]oxy}benzyl)oxy]phenyl}propanoic acid] was greater than 100 nM; that for `CO/N=C(\COc1ccc(COc2ccc(CCC(=O)O)c(OC)c2)cc1)c1ccc(C#N)cc1` [Compound 43, 3-{4-[(4-{[(2Z)-2-(4-Cyanophenyl)-2-(methoxyimino)ethyl]oxy}benzyl)oxy]-2-methoxyphenyl}propanoic acid] was greater than 100 nM.
For `CO/N=C(/COc1ccc(COc2ccc(C(C#N)CC(=O)O)cc2)cc1)c1cccc(C)c1` (racemic) [Compound 27, 3-Cyano-3-{4-[(4-{[(2E,2Z)-2-(methoxyimino)-2-(3-methylphenyl)ethyl]oxy}benzyl)oxy]phenyl}propanoic acid], the EC50 lay in the range of 10 to 100 nM.
Turning to `CO/N=C(\COc1ccc(COc2ccc(CCC(=O)O)c(F)c2)cc1OC)c1ccccc1` [Compound 41, 3-{2-Fluoro-4-[(3-methoxy-4-{[(2E,2Z)-2-(methoxyimino)-2-phenylethyl]oxy}benzyl)oxy]phenyl}propanoic acid], the EC50 lay within 10 to 100 nM.
